Measurements reported in ChEMBL document CHEMBL1777670, “Novel 12-membered non-antibiotic macrolides from erythromycin A; EM900 series as novel leads for anti-inflammatory and/or immunomodulatory agents” (Bioorg Med Chem Lett, 2011).
Converted amounts (≈) assume the structure as drawn.

Columns and labels:
Staphylococcus aureus [1] = assay: Antimicrobial activity against Staphylococcus aureus FDA209P by CLSI method; type: functional
Staphylococcus aureus [2] = assay: Antimicrobial activity against Staphylococcus aureus Smith by CLSI method; type: functional
Staphylococcus aureus [3] = assay: Antimicrobial activity against Staphylococcus aureus 8325 (pEP2104) by CLSI method; type: functional
[4] = system: Staphylococcus epidermidis; assay: Antimicrobial activity against Staphylococcus epidermidis […] by CLSI method; type: functional
Micrococcus luteus [5] = assay: Antimicrobial activity against Micrococcus luteus ATCC 9341 by CLSI method; type: functional
Micrococcus luteus [6] = assay: Antimicrobial activity against Micrococcus luteus ATCC 21212 by CLSI method; type: functional
Escherichia coli = assay: Antimicrobial activity against Escherichia coli NIHJ JC-2 by CLSI method; type: functional
Klebsiella pneumoniae = assay: Antimicrobial activity against Klebsiella pneumoniae NCTN9632 by CLSI method; type: functional
Serratia marcescens = assay: Antimicrobial activity against Serratia marcescens IFO12648 by CLSI method; type: functional
Klebsiella aerogenes = assay: Antimicrobial activity against Enterobacter aerogenes NCTC10006 by CLSI method; type: functional
[7] = system: Acinetobacter calcoaceticus; assay: Antimicrobial activity against Acinetobacter calcoaceticus IFO2552 by CLSI method; type: functional
THP-1 [8] = assay: Cytotoxicity against human THP1 cells using cell count reagent SF; type: cell-based
THP-1 [9] = assay: Immunomodulatory activity in human THP1 cells assessed as differentiation of monocyte to macrophage after 4 days by MTT assay; type: functional; conditions: THP-1, 96 h, read-out: ED50 (the source's name)

CC[C@H]1OC(=O)[C@H](C)[C@@H](O[C@H]2C[C@@](C)(OC)[C@@H](O)[C@H](C)O2)[C@H](C)[C@@H](O[C@@H]2O[C@H](C)C[C@H](N(C)C)[C@H]2O)[C@](C)(O)C[C@@H](C)C(=O)[C@H](C)[C@@H](O)[C@]1(C)O [ERYTHROMYCIN]
MIC (Staphylococcus aureus [1]): ≤ 0.5 µg/mL | MIC (Staphylococcus aureus [2]): ≤ 0.5 µg/mL | MIC (Staphylococcus aureus [3]): 64 µg/mL (≈ 87.2 µM) | MIC [4]: ≤ 0.5 µg/mL | MIC (Micrococcus luteus [5]): ≤ 0.5 µg/mL | MIC (Micrococcus luteus [6]): 1 µg/mL (≈ 1.36 µM) | MIC (Escherichia coli): 64 µg/mL (≈ 87.2 µM) | MIC (Klebsiella pneumoniae): 32 µg/mL (≈ 43.6 µM) | MIC (Serratia marcescens): 128 µg/mL (≈ 174 µM) | MIC (Klebsiella aerogenes): 128 µg/mL (≈ 174 µM) | MIC [7]: 4 µg/mL (≈ 5.45 µM)

CC[C@H]1OC(=O)O[C@@]1(C)[C@@H]1OC(=O)[C@H](C)C(=O)[C@H](C)[C@@H](O[C@@H]2O[C@H](C)C[C@H](N(C)C)[C@H]2O)[C@@]2(C)C[C@@H](C)[C@H](O2)[C@@H]1C
Activity (THP-1 [8]): > 100 µM | EC50 (THP-1 [9]): 26.3 µM

CO[C@]1(C)C[C@H](O[C@H]2[C@H](C)[C@@H](O[C@@H]3O[C@H](C)C[C@H](N(C)C)[C@H]3O)[C@@]3(C)C[C@@H](C)[C@H](O3)[C@H](C)[C@H](/C(C)=N/O)OC(=O)[C@@H]2C)O[C@@H](C)[C@@H]1O
Activity (THP-1 [8]): > 100 µM | EC50 (THP-1 [9]): 12.3 µM

CC[C@@H](OC(C)=O)[C@@](C)(O)[C@@H]1OC(=O)[C@H](C)[C@@H](O[C@H]2C[C@@](C)(OC)[C@@H](O)[C@H](C)O2)[C@H](C)[C@@H](O[C@@H]2O[C@H](C)C[C@H](N(C)C)[C@H]2O)[C@@]2(C)C[C@@H](C)[C@H](O2)[C@@H]1C
Activity (THP-1 [8]): 100 µM | EC50 (THP-1 [9]): 7.7 µM

CC[C@@H]1O[C@@]1(C)[C@@H]1OC(=O)[C@H](C)[C@@H](O[C@H]2C[C@@](C)(OC)[C@@H](O)[C@H](C)O2)[C@H](C)[C@@H](O[C@@H]2O[C@H](C)C[C@H](N(C)C)[C@H]2O)[C@@]2(C)C[C@@H](C)[C@H](O2)[C@@H]1C
Activity (THP-1 [8]): 100 µM | EC50 (THP-1 [9]): 10.2 µM

CO[C@]1(C)C[C@H](O[C@H]2[C@H](C)[C@@H](O[C@@H]3O[C@H](C)C[C@H](N(C)C)[C@H]3O)[C@@]3(C)C[C@@H](C)[C@H](O3)[C@H](C)[C@H](C(C)=O)OC(=O)[C@@H]2C)O[C@@H](C)[C@@H]1O
Activity (THP-1 [8]): 100 µM | EC50 (THP-1 [9]): 12.3 µM

CC[C@H]1OC(=O)O[C@@]1(C)[C@@H]1OC(=O)[C@H](C)[C@@H](O)[C@H](C)[C@@H](O[C@@H]2O[C@H](C)C[C@H](N(C)C)[C@H]2OC(C)=O)[C@@]2(C)C[C@@H](C)[C@H](O2)[C@@H]1C
Activity (THP-1 [8]): > 100 µM | EC50 (THP-1 [9]): 55.7 µM

CC[C@@H](O)[C@@](C)(O)[C@@H]1OC(=O)[C@H](C)[C@@H](O[C@H]2C[C@@](C)(OC)[C@@H](O)[C@H](C)O2)[C@H](C)[C@@H](O[C@@H]2O[C@H](C)C[C@H](N(C)C)[C@H]2OC(C)=O)[C@@]2(C)C[C@@H](C)[C@H](O2)[C@@H]1C
Activity (THP-1 [8]): 100 µM | EC50 (THP-1 [9]): 16.1 µM

CC[C@@H](O)[C@@](C)(O)[C@@H]1OC(=O)[C@H](C)[C@@H](O)[C@H](C)[C@@H](O[C@@H]2O[C@H](C)C[C@H](N(C)C)[C@H]2OC(C)=O)[C@@]2(C)C[C@@H](C)[C@H](O2)[C@@H]1C
Activity (THP-1 [8]): > 100 µM | EC50 (THP-1 [9]): > 100 µM

CC[C@@H](O)[C@@](C)(O)[C@@H]1OC(=O)[C@H](C)[C@@H](O[C@H]2C[C@@](C)(OC)[C@@H](O)[C@H](C)O2)[C@H](C)[C@@H](O[C@@H]2O[C@H](C)C[C@H](N(C)C)[C@H]2O)[C@@]2(C)C[C@@H](C)[C@H](O2)[C@@H]1C
Activity (THP-1 [8]): 100 µM | MIC (Staphylococcus aureus [1]): > 128 µg/mL | EC50 (THP-1 [9]): 17.1 µM | MIC (Staphylococcus aureus [2]): > 128 µg/mL | MIC (Staphylococcus aureus [3]): > 128 µg/mL | MIC [4]: > 128 µg/mL | MIC (Micrococcus luteus [5]): 128 µg/mL (≈ 178 µM) | MIC (Micrococcus luteus [6]): > 128 µg/mL | MIC (Escherichia coli): > 128 µg/mL | MIC (Klebsiella pneumoniae): > 128 µg/mL | MIC (Serratia marcescens): > 128 µg/mL | MIC (Klebsiella aerogenes): > 128 µg/mL | MIC [7]: > 128 µg/mL

CC[C@H]1OC(=O)O[C@@]1(C)[C@@H]1OC(=O)[C@H](C)C(=O)[C@H](C)[C@@H](O[C@@H]2O[C@H](C)C[C@H](N(C)C)[C@H]2OC(C)=O)[C@@]2(C)C[C@@H](C)[C@H](O2)[C@@H]1C
Activity (THP-1 [8]): > 100 µM | EC50 (THP-1 [9]): 27.9 µM
